For orientation: MIC means the smallest concentration in the dilution series that meets the test's criterion for growth inhibition.

Converted amounts (≈) assume the structure as drawn.

The test has as its system Staphylococcus aureus. The experiment in a line: Minimum inhibitory concentration required against Staphylococcus aureus ATCC 25923. The test is classed as functional.
`C[N+](C)(C)Cc1cc(-c2c3nc(c(-c4ccccc4)c4ccc([nH]4)c(-c4ccccc4)c4nc(c(-c5ccccc5)c5ccc2[nH]5)C=C4)C=C3)ccc1O`: the minimum inhibitory concentration (MIC) amounted to 60 µM.
With `COc1ccc(-c2c3nc(c(-c4ccccc4)c4ccc([nH]4)c(-c4ccccc4)c4nc(c(-c5ccccc5)c5ccc2[nH]5)C=C4)C=C3)cc1C[N+](C)(C)C` the figure was 240 µM; with `CN(C)Cc1cc(-c2c3nc(c(-c4ccccc4)c4ccc([nH]4)c(-c4ccccc4)c4nc(c(-c5ccccc5)c5ccc2[nH]5)C=C4)C=C3)ccc1O`, 120 µM (≈ 82.5 µg/mL).

For the origin of these results see ChEMBL document CHEMBL1136649, “Synthesis and antibacterial study of 10, 15, 20-triphenyl-5-(4-hydroxy-3-(trimethylammonium)methyl)phenylporphyrin as models for combination of porphyrin and alkylating agent” (2003).
